Assay results reported in the supplement of paper PMC11208160.

Assay: recombinant barcode read abundance after kanamycin selection (control-corrected) (log10(CPM+1)); higher = more efficient recombination; sequences stand for … in AGTGCAGAGAAAATCGGCCAGTTTTCTCTGCCTGCAGTCCGCATGCCGT…AGATTTATGCAGCGGACTGCCTTTCTCCCAAAGTGATAAACCGGACAGTATCATGGACCGGTTTTCCCGGTAATCCGTATTTGCAAGGTTGGTTTCACT; site = the 11-nt target
Procedure, shortened: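 A vector carrying a T7-inducible recombinase and the last 73 bp of the bridge RNA received, by Gibson cloning, oligos encoding a promoter, target, barcode and the first 104 bridge RNA bases under J23119. The pooled constructs entered E. coli together with a donor plasmid by electroporation. Selection used chloramphenicol/ampicillin/kanamycin with 0.1 mM IPTG, with chloramphenicol/ampicillin LB agar as the control, each in two replicates. Recombination efficiency is the averaged, control-corrected counts-per-million of barcodes at recombinant junctions, reported as log10(CPM+1).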
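Further: IS621 recombinase and bridge RNA in Escherichia coli cells.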

| Sequence | recombinant barcode read abundance (log10) |
| --- | --- |
| CACAGTACTTGGGTTCTAACCTGTTGCCT (site TACAGTACTAG) | 0.0394 |
| CACAGTCCTTGGGTTCTAACCTGTTGCTA (site AGGGTCGCTAG) | 0.049 |
| CACAGTCCTTGGGTTCTAACCTGTTGCTA (site CACAGTCCTTA) | 0.966 |
| CACCAAACTTGGGTTCTAACCTGTTGCCT (site CACCAAACTAG) | 0.299 |
| CACCAAACTTGGGTTCTAACCTGTTGCCT (site CACCAACCTAG) | 0.0986 |
| CACCACCCTTGGGTTCTAACCTGTTGCGG (site CACCACCCTCC) | 1.35 |
| CACCACCCTTGGGTTCTAACCTGTTGCGG (site GGTACTTCTAA) | 0.358 |
| CACCGAGCTTGGGTTCTAACCTGTTGCCG (site CAACGAGCTCG) | 0.223 |
| CACCGAGCTTGGGTTCTAACCTGTTGCCG (site CACCGAGCTCG) | 0.577 |
| CACCGAGCTTGGGTTCTAACCTGTTGCCG (site CAGCGAGCTCG) | 0.534 |
| CACCGAGCTTGGGTTCTAACCTGTTGCCG (site CATCGAGCTCG) | 0.145 |
| CACGAGCCTTGGGTTCTAACCTGTTGCCT (site CACGAGACTAG) | 0.149 |
| CACGAGCCTTGGGTTCTAACCTGTTGCCT (site CACGAGCCTAG) | 2.24 |
| CACGAGCCTTGGGTTCTAACCTGTTGCCT (site CACGAGGCTAG) | 0.0367 |
| CACGAGCCTTGGGTTCTAACCTGTTGCCT (site CACGAGTCTAG) | 1.63 |
| CACGCATCTTGGGTTCTAACCTGTTGCCT (site CACCAATCTAG) | 0.211 |
| CACGCATCTTGGGTTCTAACCTGTTGCCT (site CACGCATCTAG) | 0.822 |
| CACGGAACTTGGGTTCTAACCTGTTGCCT (site CACGGAACTAG) | 1.82 |

| Sequence | recombinant barcode read abundance (log10) |
| --- | --- |
| CACGGAACTTGGGTTCTAACCTGTTGCCT (site CACGTTACTAG) | 0.59 |
| CACGGGCCTTGGGTTCTAACCTGTTGCCT (site CACGGGCCTAG) | 0.466 |
| CACGGGCCTTGGGTTCTAACCTGTTGCCT (site GACAGGCCTAG) | 0.0551 |
| CACTAGACTTGGGTTCTAACCTGTTGCCG (site CACTAGACTCG) | 1.37 |
| CACTAGACTTGGGTTCTAACCTGTTGCCG (site GTGACTGCTAC) | 0.242 |
| CACTCCTCTTGGGTTCTAACCTGTTGCTT (site CACTCCTCTAA) | 0.0523 |
| CACTCCTCTTGGGTTCTAACCTGTTGCTT (site CTCTGCTCTAA) | 0.0209 |
| CACTGAGCTTGGGTTCTAACCTGTTGCCT (site CACTGAGCTAG) | 0.845 |
| CACTGAGCTTGGGTTCTAACCTGTTGCCT (site TACTGAGCTAG) | 0.229 |
| CACTGATCTTGGGTTCTAACCTGTTGCCT (site CACTGATCTAG) | 1.28 |
| CACTGATCTTGGGTTCTAACCTGTTGCCT (site CACTGCTCTAG) | 0.0175 |
| CACTGATCTTGGGTTCTAACCTGTTGCCT (site CACTGGTCTAG) | 0.281 |
| CACTGATCTTGGGTTCTAACCTGTTGCCT (site CACTGTTCTAG) | 0.302 |
| CACTTTGCTTGGGTTCTAACCTGTTGCCT (site AGGGAGACTGA) | 0.145 |
| CACTTTGCTTGGGTTCTAACCTGTTGCCT (site CACTTTGCTAG) | 0.207 |
| CAGAATCCTTGGGTTCTAACCTGTTGCGG (site CAGAATCCTCC) | 1.73 |
| CAGAATCCTTGGGTTCTAACCTGTTGCGG (site TCTCTCGCTAG) | 0.0949 |
| CAGACGACTTGGGTTCTAACCTGTTGCCA (site CAGACGACTTG) | 0.37 |
